Drawing on ChEMBL document CHEMBL6074713, “Chemical Synthesis and Antifibrotic Properties of (±)-Cochlearol T, (±)-Ganocochlearin A, and (±)-Cochlearol Y” (ACS Med Chem Lett, 2024), this text covers Activity and viability for three compounds.

Molecules are shown by their SMILES. Activity calls are given as the source filed them. No cut-off for these calls is given here. A value given as a limit tells only on which side of the number the result lay.

Data set [1] has as its system HK-2. Nature of the data set: Anti-fibrotic activity in TGFbeta-1-treated HK-2 cells assessed as Col4A1 mRNA level at 10 uM incubated for 24 to 48 hrs by qPCR analysis (reference value: 2.54 +/- 0.24). Type of data set: functional, Homo sapiens. Particulars: time 24-48 hrs. Background: In qPCR the cycle at which signal appears reflects the starting amount.
Data set [2] concerns HK-2. Nature of the data set: Anti-fibrotic activity in TGFbeta-1-treated HK-2 cells assessed as vimentin mRNA level at 10 uM incubated for 24 to 48 hrs by qPCR analysis (reference value: 3.73 +/- 0.47). It counts as functional, Homo sapiens. Particulars: time 24-48 hrs.
Data set [3] deals with HK-2. Nature of the data set: Anti-fibrotic activity in TGFbeta-1-treated HK-2 cells assessed as fibronectin mRNA level at 10 uM incubated for 24 to 48 hrs by qPCR analysis (reference value: 11.31 +/- 2.49). Type of data set: functional, Homo sapiens. Particulars: time 24-48 hrs.
Data set [4] concerns HK-2. Nature of the data set: Anti-fibrotic activity in TGFbeta-1-treated HK-2 cells assessed as decrease in fibronectin level at 5 to 10 uM incubated for 24 to 48 hrs by Western blot analysis. Type of data set: functional, cell-based. Particulars: Homo sapiens, dose 5-10 µM, time 24-48 hrs.
Data set [5] relates to HK-2. The data set can be described thus: Anti-fibrotic activity in TGFbeta-1-treated HK-2 cells assessed as decrease in alpha-SMA level at 1 uM incubated for 24 to 48 hrs by Western blot analysis. Type of data set: functional, cell-based. Particulars: Homo sapiens, time 24-48 hrs.
Data set [6] relates to HK-2. Nature of the data set: Anti-fibrotic activity in TGFbeta-1-treated HK-2 cells assessed as Col4A1 mRNA level at 10 uM incubated for 24 to 48 hrs by qPCR analysis (reference value: 2.35 +/- 0.38). Type of data set: functional, Homo sapiens. Particulars: time 24-48 hrs.
In data set [7] the test system is HK-2. Nature of the data set: Anti-fibrotic activity in TGFbeta-1-treated HK-2 cells assessed as vimentin mRNA level at 10 uM incubated for 24 to 48 hrs by qPCR analysis (reference value: 1.88 +/- 0.48). Type of data set: functional, Homo sapiens. Particulars: time 24-48 hrs.
Data set [8] concerns HK-2. Nature of the data set: Anti-fibrotic activity in TGFbeta-1-treated HK-2 cells assessed as fibronectin mRNA level at 10 uM incubated for 24 to 48 hrs by qPCR analysis (reference value: 6.88). It counts as functional, Homo sapiens. Particulars: time 24-48 hrs.
Data set [9] deals with HK-2. Nature of the data set: Anti-fibrotic activity in TGFbeta-1-treated HK-2 cells assessed as decrease in Col4A1 level at 1 uM incubated for 24 to 48 hrs by Western blot analysis. It counts as functional, cell-based. Particulars: Homo sapiens, time 24-48 hrs. In general terms: Immunoblotting shows a protein as a band on a membrane.
Data set [10] relates to HK-2. The data set can be described thus: Anti-fibrotic activity in TGFbeta-1-treated HK-2 cells assessed as decrease in vimentin level at 1 uM incubated for 24 to 48 hrs by Western blot analysis. Particulars: Homo sapiens, time 24-48 hrs. It counts as functional, cell-based.
The test system of data set [11] is HK-2. Nature of the data set: Anti-fibrotic activity in TGFbeta-1-treated HK-2 cells assessed as decrease in fibronectin level at 1 uM incubated for 24 to 48 hrs by Western blot analysis. It counts as functional, cell-based. Particulars: Homo sapiens, time 24-48 hrs.
For data set [12], the system named is HK-2. The data set can be described thus: Cytotoxicity against TGFbeta-1-treated HK-2 cells assessed as decrease in cell viability at 1 to 5 uM incubated for 48 hrs by Cell Titer-Glo assay. It counts as toxicity, cell-based. Particulars: human, hk-2, 48 h, dose 1-5 µM.
Data set [13] in a line: Cytotoxicity against TGFbeta-1-treated HK-2 cells assessed as cell viability at 10 uM incubated for 48 hrs by Cell Titer-Glo assay (Rvb ~ 80 %). Particulars: human, read-out: Activity. Type of data set: toxicity, cell-based. Background: Cellular ATP, detected with luciferase, serves as a proxy for viable cell number.
For data set [14], the system named is HK-2. Nature of the data set: Anti-fibrotic activity in HK-2 cell model of 10 ng/ml TGFbeta-1-induced fibrosis injury assessed as Col4A1 mRNA level at 10 uM incubated for 24 to 48 hrs by qPCR analysis (reference value: 2.44 +/- 0.21). It counts as functional, Homo sapiens. Particulars: time 24-48 hrs.
For data set [15], the system named is HK-2. The data set can be described thus: Anti-fibrotic activity in HK-2 cell model of 10 ng/ml TGFbeta-1-induced fibrosis injury assessed as Col4A1 mRNA level at 20 uM incubated for 24 to 48 hrs by qPCR analysis (reference value: 2.44 +/- 0.21). Type of data set: functional, Homo sapiens. Particulars: time 24-48 hrs.
Data set [16] concerns HK-2. The data set can be described thus: Anti-fibrotic activity in HK-2 cell model of 20 ng/ml TGFbeta-1-induced fibrosis injury assessed as Col4A1 mRNA level at 10 uM incubated for 24 to 48 hrs by qPCR analysis (reference value: 8.96 +/- 0.96). It counts as functional, Homo sapiens. Particulars: time 24-48 hrs.
For data set [17], the system named is HK-2. The data set can be described thus: Anti-fibrotic activity in HK-2 cell model of 20 ng/ml TGFbeta-1-induced fibrosis injury assessed as Col4A1 mRNA level at 20 uM incubated for 24 to 48 hrs by qPCR analysis (reference value: 8.96 +/- 0.96). It counts as functional, Homo sapiens. Particulars: time 24-48 hrs.
The test system of data set [18] is HK-2. Nature of the data set: Anti-fibrotic activity in HK-2 cell model of 10 ng/ml TGFbeta-1-induced fibrosis injury assessed as vimentin mRNA level at 10 uM incubated for 24 to 48 hrs by qPCR analysis (reference value: 1.41 +/- 0.1). It counts as functional, Homo sapiens. Particulars: time 24-48 hrs.
The subject of data set [19] is HK-2. The data set can be described thus: Anti-fibrotic activity in HK-2 cell model of 10 ng/ml TGFbeta-1-induced fibrosis injury assessed as vimentin mRNA level at 20 uM incubated for 24 to 48 hrs by qPCR analysis (reference value: 1.41 +/- 0.1). Type of data set: functional, Homo sapiens. Particulars: time 24-48 hrs.
Data set [20] deals with HK-2. Nature of the data set: Anti-fibrotic activity in HK-2 cell model of 20 ng/ml TGFbeta-1-induced fibrosis injury assessed as vimentin mRNA level at 10 uM incubated for 24 to 48 hrs by qPCR analysis (reference value: 3.19 +/- 0.23). It counts as functional, Homo sapiens. Particulars: time 24-48 hrs.
The test system of data set [21] is HK-2. The data set can be described thus: Anti-fibrotic activity in HK-2 cell model of 20 ng/ml TGFbeta-1-induced fibrosis injury assessed as vimentin mRNA level at 20 uM incubated for 24 to 48 hrs by qPCR analysis (reference value: 3.19 +/- 0.23). Particulars: time 24-48 hrs. Type of data set: functional, Homo sapiens.
The test system of data set [22] is HK-2. Nature of the data set: Anti-fibrotic activity in TGFbeta-1-treated HK-2 cells assessed as Col4A1 mRNA level at 10 uM incubated for 24 to 48 hrs by qPCR analysis (reference value: 2.81 +/- 0.22). Type of data set: functional, Homo sapiens. Particulars: time 24-48 hrs.
Data set [23] relates to HK-2. Nature of the data set: Anti-fibrotic activity in TGFbeta-1-treated HK-2 cells assessed as vimentin mRNA level at 10 uM incubated for 24 to 48 hrs by qPCR analysis (reference value: 2.2 +/- 0.28). Particulars: time 24-48 hrs. Type of data set: functional, Homo sapiens.
In data set [24] the test system is HK-2. Nature of the data set: Anti-fibrotic activity in TGFbeta-1-treated HK-2 cells assessed as fibronectin mRNA level at 10 uM incubated for 24 to 48 hrs by qPCR analysis (reference value: 2.16 +/- 0.31). It counts as functional, Homo sapiens. Particulars: time 24-48 hrs.
The subject of data set [25] is HK-2. Nature of the data set: Anti-fibrotic activity in TGFbeta-1-treated HK-2 cells assessed as decrease in Col4A1 mRNA level at 10 uM incubated for 24 to 48 hrs by qPCR analysis relative to control. Type of data set: functional, Homo sapiens. Details: scale not given: the % may be the effect or the level left. Particulars: time 24-48 hrs.
Data set [26] has as its system HK-2. Nature of the data set: Anti-fibrotic activity in TGFbeta-1-treated HK-2 cells assessed as decrease in vimentin mRNA level at 10 uM incubated for 24 to 48 hrs by qPCR analysis relative to control. Particulars: time 24-48 hrs. It counts as functional, Homo sapiens. Set-up: scale not given: the % may be the effect or the level left.
Data set [27] relates to HK-2. Nature of the data set: Anti-fibrotic activity in TGFbeta-1-treated HK-2 cells assessed as decrease in fibronectin mRNA level at 10 uM incubated for 24 to 48 hrs by qPCR analysis relative to control. Type of data set: functional, Homo sapiens. Set-up: scale not given: the % may be the effect or the level left. Particulars: time 24-48 hrs.
Data set [28] concerns HK-2. The data set can be described thus: Anti-fibrotic activity in TGFbeta-1-treated HK-2 cells assessed as decrease in vimentin level at 1 to 10 uM incubated for 24 to 48 hrs by Western blot analysis. Type of data set: functional, cell-based. Particulars: Homo sapiens, dose 1-10 µM, time 24-48 hrs.
Data set [29] has as its system HK-2. The data set can be described thus: Anti-fibrotic activity in TGFbeta-1-treated HK-2 cells assessed as decrease in alpha-SMA level at 5 to 10 uM incubated for 24 to 48 hrs by Western blot analysis. Particulars: Homo sapiens, dose 5-10 µM, time 24-48 hrs. Type of data set: functional, cell-based.

Consider `CC(C)=CCC[C@]1(C)Oc2ccc(O)cc2C2=CC(=O)CC[C@H]21` (racemic), for which the Activity worked out at 0.6 in data set [1], 0.93 in [2] and 0.39 in [3]. Besides, the result in data set [4] and in data set [5] was Active.
With `CC(C)=CCCC1(C)Oc2ccc(O)cc2-c2cc(O)ccc21` (racemic), the Activity is 0.66 in data set [6]; 0.65 in [7]; 1 in [8]; “Non-toxic” in data set [12]; 0.74 in data set [14]; 0.11 in [15]. For the same compound, the Activity worked out at 4.08 in data set [16]; 1.21 in [17]; 0.54 in data set [18]; 0.24 in [19]; 1.44 in data set [20]; 0.5 in [21]. Further, the result in [9], in data set [10] and in data set [11] was Active. In addition, the viability at 48 h, 10 µM in data set [13] worked out at 70%.
Turning to `CC(C)=CCC[C@]1(C)Oc2ccc(O)cc2C2=CC(=O)CC[C@@H]21` (racemic), the Activity in data set [22] is listed as 1.1; in data set [23] it was 1.22; in [24], 0.6; in [25], “<=50%”; in [26], “<=50%”; in data set [27] it was “<=50%”. In addition, the outcome in data set [28] and in [29] was Active.
